Here are results for six molecules from paper PMC6271228, “Diethyl 2-(Phenylcarbamoyl)phenyl Phosphorothioates: Synthesis, Antimycobacterial Activity and Cholinesterase Inhibition” (Molecules, 2014).

Values after ≈ are worked out from the molar mass of the structure shown. Read-outs that look alike come from different tables or passages of the source.

One test has as its target T1, BChE from equine serum (Equus caballus, UniProt P81908).
T1 construct: butyrylcholinesterase from equine serum; from tissue; host or cells: equine serum
The test can be described thus: BChE inhibition, modified Ellman's method. Format: biochemical. The text has this:
(§1) The ability of the tested compounds to inhibit AChE from electric eel (Electrophorus electricus L.) and BChE from equine serum was screened in vitro using modified Ellman’s method for the evaluation of cholinesterase activity. […] […]. These two standards were chosen due to their different structures. […]. The choice of these drugs with different mechanism of action can provide relevant results. All tested compounds expressed a good inhibitory activity with IC50s in low micromolar values.
(§2) The IC50 values were determined using the spectrophotometric Ellman’s method, which is a simple, rapid and direct method to determine the SH and -S-S- group content in proteins. This method is widely used for cholinesterase activity evaluation and screening of the efficiency of cholinesterase inhibitors. Cholinesterase activity is measured indirectly by quantifying the concentration of 5-thio-2-nitrobenzoic acid (TNB) ion formed in the reaction between the thiol reagent 5,5'-dithiobis-2-nitrobenzoic acid (DTNB) and thiocholine, a product of substrate hydrolysis by cholinesterase (i.e., acetylthiocholine, ATCh). All the tested compounds were dissolved in dimethyl sulfoxide (concentration 0.01 M) and then diluted in demineralised water (concentration 0.001 M and 0.0001 M). The Ellman’s method is slightly modified according to Zdrazilova et al.. Acetylcholinesterase was obtained from electric eel (Electrophorus electricus L.) and butyrylcholinesterase from equine serum.

Another test has as its system M. avium My 330/88. Briefly: microbe, parasite or virus in culture. Conditions: Mycobacterium avium, 37 °C. Format: cell-based, Mycobacterium avium.
For a further test, the target named is T2, AChE from electric eel (Electrophorus electricus, UniProt O42275).
T2 construct: Acetylcholinesterase was obtained from electric eel (Electrophorus electricus L.); from tissue; host or cells: electric eel (Electrophorus electricus L.)
T2 sequence (O42275 24-633): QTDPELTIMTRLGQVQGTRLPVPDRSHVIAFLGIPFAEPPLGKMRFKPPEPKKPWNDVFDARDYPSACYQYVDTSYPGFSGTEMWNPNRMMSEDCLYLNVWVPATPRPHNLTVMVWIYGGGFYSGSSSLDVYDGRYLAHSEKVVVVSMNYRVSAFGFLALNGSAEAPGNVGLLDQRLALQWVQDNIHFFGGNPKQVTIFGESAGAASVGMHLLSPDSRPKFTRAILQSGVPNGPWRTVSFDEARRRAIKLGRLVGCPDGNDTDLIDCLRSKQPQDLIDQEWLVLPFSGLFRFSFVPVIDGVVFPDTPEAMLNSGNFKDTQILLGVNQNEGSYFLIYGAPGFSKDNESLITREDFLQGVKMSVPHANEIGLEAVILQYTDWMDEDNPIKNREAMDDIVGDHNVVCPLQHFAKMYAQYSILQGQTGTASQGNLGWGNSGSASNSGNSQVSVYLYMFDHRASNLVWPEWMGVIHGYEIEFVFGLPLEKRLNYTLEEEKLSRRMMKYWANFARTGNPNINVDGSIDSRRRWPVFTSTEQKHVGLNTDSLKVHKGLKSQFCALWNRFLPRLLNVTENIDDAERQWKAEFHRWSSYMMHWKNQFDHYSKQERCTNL
The test can be described thus: AChE inhibition, modified Ellman's method. It is filed as biochemical, Electrophorus electricus L.
From the text: as §1, §2

For test [1], the system named is M. kansasii 6509/96 (clinically isolated). Briefly: microbe, parasite or virus in culture. It is filed as cell-based. Conditions: Mycobacterium kansasii, 37 °C.
In a further test the test system is M. kansasii My 235/80. Briefly: microbe, parasite or virus in culture. Format: cell-based, Mycobacterium kansasii. Particulars: for MIC: Mycobacterium kansasii, 37 °C; for MICs for M. kansasii 235/80: all time points.
For test [2], the system named is Mycobacterium tuberculosis My 331/88 (H37Rv). Briefly: microbe, parasite or virus in culture. It is filed as cell-based. Particulars: 37 °C.
Setting [3] is: MY330/88, 336 h, 14 d, read-out: MIC M. avium 330/88 14 d.
Where [4] appears, read: MY330/88, 504 h, 21 d, read-out: MIC M. avium 330/88 21 d.
Where [5] appears, read: 168 h, 7 d, read-out: MIC M. kansasii 6509/96 7 d.
[6] abbreviates: 336 h, 14 d, read-out: MIC M. kansasii 6509/96 14 d.
Where [7] appears, read: 504 h, 21 d, read-out: MIC M. kansasii 6509/96 21 d.
Where [8] appears, read: MY235/80, 168 h, 7 d, read-out: MIC M. kansasii 235/80 7 d.
Where [9] appears, read: MY235/80, 336 h, 14 d, read-out: MIC M. kansasii 235/80 14 d.
[10] abbreviates: MY235/80, 504 h, 21 d, read-out: MIC M. kansasii 235/80 21 d.
Where [11] appears, read: 336 h, 14 d, read-out: MIC Mtb 331/88 (H37Rv) 14 d.
Where [12] appears, read: 504 h, 21 d, read-out: MIC Mtb 331/88 (H37Rv) 21 d.

T1 sequence (P81908 whole entry): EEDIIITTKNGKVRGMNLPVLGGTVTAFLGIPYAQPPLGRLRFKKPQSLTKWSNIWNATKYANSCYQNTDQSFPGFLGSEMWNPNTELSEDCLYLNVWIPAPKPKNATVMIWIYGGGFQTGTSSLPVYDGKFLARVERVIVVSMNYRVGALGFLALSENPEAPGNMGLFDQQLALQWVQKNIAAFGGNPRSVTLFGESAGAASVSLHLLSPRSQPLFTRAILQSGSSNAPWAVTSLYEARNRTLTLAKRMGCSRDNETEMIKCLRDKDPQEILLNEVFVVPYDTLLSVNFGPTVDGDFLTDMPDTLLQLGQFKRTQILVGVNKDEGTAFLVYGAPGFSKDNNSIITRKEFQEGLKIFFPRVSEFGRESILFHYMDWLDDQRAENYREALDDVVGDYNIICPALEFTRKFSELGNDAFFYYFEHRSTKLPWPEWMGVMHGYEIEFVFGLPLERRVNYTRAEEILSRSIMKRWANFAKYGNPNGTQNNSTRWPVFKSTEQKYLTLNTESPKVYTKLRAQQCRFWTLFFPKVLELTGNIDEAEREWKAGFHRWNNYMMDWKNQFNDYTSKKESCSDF

Usually IC50 stands for the concentration that gives 50% inhibition. High values mean weaker potency in that assay, low ones greater potency in that assay. Take `CCOP(=S)(OCC)Oc1cc(Cl)ccc1C(=O)Nc1cccc(F)c1` [1x, O-{5-Chloro-2-[(3-fluorophenyl)carbamoyl]phenyl} O,O-diethyl phosphorothioate]: the IC50 against BChE from equine serum worked out at 8.68 ± 0.54 µM; at AChE from electric eel, 8.04 ± 0.27 µM. Besides, the MIC with M. avium My 330/88 (setting [3]) was 250 µM (≈ 104 µg/mL); with M. avium My 330/88 (setting [4]), 250 µM (≈ 104 µg/mL); in test [1] (setting [5]) it was 32 µM (≈ 13.4 µg/mL); in test [1] (setting [6]), 125 µM (≈ 52.2 µg/mL); in test [1] (setting [7]), 250 µM (≈ 104 µg/mL); in the test on M. kansasii My 235/80 (setting [8]), 32 µM (≈ 13.4 µg/mL). Also, the MIC is 125 µM (≈ 52.2 µg/mL) in the test on M. kansasii My 235/80 (setting [9]), 250 µM (≈ 104 µg/mL) with M. kansasii My 235/80 (setting [10]), 16 µM (≈ 6.69 µg/mL) in test [2] (setting [11]) and 32 µM (≈ 13.4 µg/mL) in test [2] (setting [12]).

Take `CCOP(=S)(OCC)Oc1cc(Cl)ccc1C(=O)Nc1cccc(C(F)(F)F)c1` [1z, O-(5-Chloro-2-{[3-(trifluoromethyl)phenyl]carbamoyl}phenyl) O,O-diethyl phosphorothioate]: the IC50 against BChE from equine serum is 15 µM; against AChE from electric eel it was 11.4 ± 0.3 µM. The MIC turned out to be 500 µM (≈ 234 µg/mL) in the test on M. avium My 330/88 (setting [3]); 500 µM (≈ 234 µg/mL) in the test on M. avium My 330/88 (setting [4]); 62.5 µM (≈ 29.2 µg/mL) in test [1] (setting [5]); 125 µM (≈ 58.5 µg/mL) in test [1] (setting [6]); 125 µM (≈ 58.5 µg/mL) in test [1] (setting [7]); 32 µM (≈ 15 µg/mL) in the test on M. kansasii My 235/80 (setting [8]). In addition, the MIC in the test with M. kansasii My 235/80 (setting [9]) was found to be 125 µM (≈ 58.5 µg/mL); in the test on M. kansasii My 235/80 (setting [10]), 250 µM (≈ 117 µg/mL); in test [2] (setting [11]) it was 32 µM (≈ 15 µg/mL); in test [2] (setting [12]) it was 62.5 µM (≈ 29.2 µg/mL). Further, the “MICs for M. kansasii 235/80” value against M. kansasii My 235/80 is recorded as at most 250 µM.

Regarding `CCOP(=S)(OCC)Oc1ccc(Br)cc1C(=O)Nc1cccc(F)c1` [1f, O-{4-Bromo-2-[(3-fluorophenyl)carbamoyl]phenyl} O,O-diethyl phosphorothioate], the IC50 was 12.2 µM against BChE from equine serum and 12.7 ± 0.05 µM against AChE from electric eel. In addition, the MIC in the test on M. avium My 330/88 (setting [3]) amounted to 250 µM (≈ 116 µg/mL); with M. avium My 330/88 (setting [4]) it was 500 µM (≈ 231 µg/mL); in test [1] (setting [5]), 62.5 µM (≈ 28.9 µg/mL); in test [1] (setting [6]), 250 µM (≈ 116 µg/mL); in test [1] (setting [7]), 250 µM (≈ 116 µg/mL); in the test on M. kansasii My 235/80 (setting [8]), 62.5 µM (≈ 28.9 µg/mL). In addition, the MIC stood at 250 µM (≈ 116 µg/mL) with M. kansasii My 235/80 (setting [9]), 500 µM (≈ 231 µg/mL) in the test with M. kansasii My 235/80 (setting [10]), 8 µM (≈ 3.7 µg/mL) in test [2] (setting [11]) and 16 µM (≈ 7.4 µg/mL) in test [2] (setting [12]).

As for `CCOP(=S)(OCC)Oc1ccc(Cl)cc1C(=O)Nc1cccc(F)c1` [1o, O-{4-Chloro-2-[(3-fluorophenyl)carbamoyl]phenyl} O,O-diethyl phosphorothioate], the IC50 against BChE from equine serum was determined as 11.8 ± 0.6 µM; against AChE from electric eel, 9.94 ± 0.2 µM. The MIC with M. avium My 330/88 (setting [3]) stood at 500 µM (≈ 209 µg/mL); in the test with M. avium My 330/88 (setting [4]), 500 µM (≈ 209 µg/mL); in test [1] (setting [5]), 250 µM (≈ 104 µg/mL); in test [1] (setting [6]), 500 µM (≈ 209 µg/mL); in test [1] (setting [7]) it was 500 µM (≈ 209 µg/mL); with M. kansasii My 235/80 (setting [8]), 250 µM (≈ 104 µg/mL). Besides, the MIC with M. kansasii My 235/80 (setting [9]) was 500 µM (≈ 209 µg/mL); with M. kansasii My 235/80 (setting [10]) it was over 500 µM; in test [2] (setting [11]) it was 32 µM (≈ 13.4 µg/mL); in test [2] (setting [12]), 32 µM (≈ 13.4 µg/mL).

For the molecule `CCOP(=S)(OCC)Oc1ccc(Cl)cc1C(=O)Nc1ccc(Cl)cc1` [1k, O-{4-Chloro-2-[(4-chlorophenyl)carbamoyl]phenyl} O,O-diethyl phosphorothioate], the IC50 against BChE from equine serum was 12.7 ± 0.1 µM; at AChE from electric eel, 9.78 ± 0.11 µM. In addition, the MIC is 500 µM (≈ 217 µg/mL) with M. avium My 330/88 (setting [3]); 500 µM (≈ 217 µg/mL) in the test on M. avium My 330/88 (setting [4]); 62.5 µM (≈ 27.1 µg/mL) in test [1] (setting [5]); 125 µM (≈ 54.3 µg/mL) in test [1] (setting [6]); 125 µM (≈ 54.3 µg/mL) in test [1] (setting [7]); 32 µM (≈ 13.9 µg/mL) in the test on M. kansasii My 235/80 (setting [8]). Further, the MIC was found to be 62.5 µM (≈ 27.1 µg/mL) in the test with M. kansasii My 235/80 (setting [9]), 62.5 µM (≈ 27.1 µg/mL) in the test on M. kansasii My 235/80 (setting [10]), 32 µM (≈ 13.9 µg/mL) in test [2] (setting [11]) and 32 µM (≈ 13.9 µg/mL) in test [2] (setting [12]). Besides, the “MICs for M. kansasii 235/80” value against M. kansasii My 235/80 is at most 250 µM.

With `CCOP(=S)(OCC)Oc1cc(Cl)ccc1C(=O)Nc1ccc(Cl)c(Cl)c1` [1u, O-{5-Chloro-2-[(3,4-dichlorophenyl)carbamoyl]phenyl} O,O-diethyl phosphorothioate], the IC50 on BChE from equine serum was 14.7 ± 0.2 µM; on AChE from electric eel it was 9.56 ± 0.21 µM. Besides, the MIC with M. avium My 330/88 (setting [3]) is over 500 µM; in the test with M. avium My 330/88 (setting [4]) it was over 500 µM; in test [1] (setting [5]), 32 µM (≈ 15 µg/mL); in test [1] (setting [6]), 62.5 µM (≈ 29.3 µg/mL); in test [1] (setting [7]) it was 62.5 µM (≈ 29.3 µg/mL); in the test with M. kansasii My 235/80 (setting [8]) it was 32 µM (≈ 15 µg/mL). In addition, the MIC in the test with M. kansasii My 235/80 (setting [9]) came out at 32 µM (≈ 15 µg/mL); with M. kansasii My 235/80 (setting [10]) it was 32 µM (≈ 15 µg/mL); in test [2] (setting [11]), 16 µM (≈ 7.5 µg/mL); in test [2] (setting [12]), 16 µM (≈ 7.5 µg/mL).
